From patent publication US20150329498A1, “IRAK INHIBITORS AND USES THEREOF” (Nimbus Iris, Inc., priority 2014, published 2015)

Tests used:
[1] = tested on: IL8 production in THP-1 cells; experiment: LPS induced IL8 production assay in THP-1 cells; type: cell-based; conditions: Homo sapiens, 300 ng/mL LPS, measured at 16 hours
Procedure: (§1) Provided compounds were also assayed in an LPS (Lipopolysaccharide) or R848 (TLR-7 agonist) induced cytokine (TNFα and IL8) production assay in THP-1 cells, human white blood cells (hWBC), and human whole blood. The exemplary protocol for this assay in THP-1 cells was as follows below.
(§2) THP-1 cells from ATCC (TIB-202) were cultured in RPMI Medium 1640 (Invitrogen, Cat No. A10491-01), 10% fetal bovine serum (Invitrogen, Cat No. 10099141, Lot No. 8172882) containing 100 U/mL Penicillin, 100 μg/mL streptomycin (Invitrogen, Cat No. 15140-122), and 50 uM 2-Mercaptoethanol (Invitrogen, Cat No. 21985023). LPS-EK ultra pure (Invivogen, Cat No. tlrl-peklps) was used to induce IL8 and TNFα production, that was detected in the cell culture supernatant by IL8 HTRF kit (Cisbio, Cat No. 62IL8PEB) and TNFα HTRF kit (Cisbio, Cat No. 62TNFPEB), as per manufacturer instructions. Cells were cultured in 96 well assay plates at 100,000 cells per well, and compounds diluted in final 0.3% DMSO were pre-incubated with cells for 1 hour prior to stimulation with 300 ng/mL LPS. Cytokine production in cell supernatant was measured at 5 hours for TNFα production, and at 16 hours for IL8 production and assessment of cell viability.
(§3) The compound numbers correspond to the compound numbers in Table 1. Compounds having an activity designated as “A” provided an IC50≦0.5 μM; compounds having an activity designated as “B” provided an IC50 of 0.5-5.0 μM; compounds having an activity designated as “C” provided an IC50>5.0 μM. “NA” stands for “not assayed.”

[2] = tested on: TNFα production in THP-1 cells; experiment: LPS induced TNFα production assay in THP-1 cells; type: cell-based; conditions: Homo sapiens, 300 ng/mL LPS, measured at 5 hours
Procedure: as §1, §2, §3

IRAK4 = biological target: T1, IRAK4 (Homo sapiens, UniProt Q9NWZ3); experiment: IRAK-4 activity inhibition assay (Caliper); type: biochemical; conditions: 3.5 nM IRAK4, 1.5 μM Peptide 8, 37 μM ATP
T1 construct: purchased CARNA Bioscience 09-145
T1 sequence (Q9NWZ3 1-460): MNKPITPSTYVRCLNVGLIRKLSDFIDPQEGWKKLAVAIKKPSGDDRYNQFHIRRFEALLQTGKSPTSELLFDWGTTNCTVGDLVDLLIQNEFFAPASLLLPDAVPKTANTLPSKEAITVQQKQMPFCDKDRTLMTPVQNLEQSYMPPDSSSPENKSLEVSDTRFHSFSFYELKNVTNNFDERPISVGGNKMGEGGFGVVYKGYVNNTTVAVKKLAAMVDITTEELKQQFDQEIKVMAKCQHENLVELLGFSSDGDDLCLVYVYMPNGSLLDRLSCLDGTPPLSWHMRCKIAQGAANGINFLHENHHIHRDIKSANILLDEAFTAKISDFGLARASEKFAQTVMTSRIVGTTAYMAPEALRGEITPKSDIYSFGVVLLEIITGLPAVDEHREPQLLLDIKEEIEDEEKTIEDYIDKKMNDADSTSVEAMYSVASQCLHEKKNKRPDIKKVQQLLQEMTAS
Procedure: A 1x kinase base buffer was prepared from 50 mM HEPES, pH 7.5 and 0.0015% Brij-35. A stop buffer was prepared from 100 mM HEPES, pH 7.5, 0.015% Brij-35, 0.2% Coating Reagent #3, and 50 mM EDTA.
Test compound was diluted to 50× of the final desired highest inhibitor concentration in reaction by 100% DMSO. 100 ul of this compound dilution was transferred to a well in a 96-well plate. For example, if desired highest inhibitor concentration in IC50 determination is 100 uM, then prepare 5000 uM of compound DMSO solution in this step.
Test compound was serially diluted by transferring 30 μl to 60 μl of 100% DMSO in the next well and so forth for a total of 10 concentrations. 100 μl of 100% DMSO was added to two empty wells for no compound control and no enzyme control in the same 96-well plate.
A new 96-well plate was marked as intermediate plate. 5 μl of compound serial dilution was transferred from source plate to the corresponding wells of the intermediate plate. 45 μl of 1x kinase base buffer (KB buffer) was added to each well of the intermediate plate. The intermediate plate was placed for 10 min on a shaker.
5 μl of each well was transferred from the 96-well intermediate plate to a 384-well plate in duplicates. For example, A1 of the 96-well plate is transferred to A1 and A2 of the 384-well plate. A2 of the 96-well plate is transferred to A3 and A4 of the 384-well plate, and so on.
IRAK4 and DTT in 1x kinase base buffer was added. The 2.5x enzyme mix contained 8.8 nM IRAK4 and 5 mM DTT.
Peptide 8, ATP, MgCl2 and MnCl2 were added in the 1x kinase base buffer. The 2.5x peptide mix contained 3.75 μM peptide 8, 92.5 μM ATP, 12.5 mM MgCl2 and 2.5 mM MnCl2.
Assay plate already contained 5 μl of compound in 10% DMSO. Added 10 μl of 2.5x enzyme solution to each well of the 384-well assay plate, except no enzyme control wells. The final concentration of IRAK4 in reaction was 3.5 nM. Added 10 μl of 1x kinase base buffer to no enzyme control wells in the assay plate. Incubated at room temperature for 10 min.
Added 10 μl of 2.5x peptide solution to each well of the 384-well assay plate. The final concentration of Peptide 8 and ATP was 1.5 μM and 37 μM, respectively. Incubated at for 40 minutes. Added 25 μl of stop buffer to stop reaction. Collected data on Caliper.
Copied conversion % data from Caliper program. Converted conversion % values to percent inhibition values. Percent inhibition=(max−conversion %)/(max−min)*100, where “max” means the conversion % of DMSO control and “min” means the conversion % of no enzyme control.
The compound numbers correspond to the compound numbers in Table 1. Compounds having an activity designated as “A” provided an IC50≦5 μM; compounds having an activity designated as “B” provided an IC50 of 5-20 μM; compounds having an activity designated as “C” provided an IC50 of 20-50 μM; and compounds having an activity designated as “D” provided an IC50≧50 μM. “NA” stands for “not assayed.”

| IC50 [1] [nM] | IC50 [2] [nM] | IC50 (IRAK4) [nM] | SMILES |
| --- | --- | --- | --- |
| ≤ 500 | ≤ 500 | ≤ 5000 | Brc1ccc2ncnc(N[C@H]3CC[C@H](N4CCOCC4)CC3)c2c1 [Compound I-2, 6-bromo-N-((1r,4r)-4-morpholinocyclohexyl)quinazolin-4-amine] |
| > 5000 | 500 to 5000 | ≤ 5000 | NC(=O)c1ccc2ncnc(N[C@H]3CC[C@H](N4CCOCC4)CC3)c2c1 [Compound I-5, 4-(((1r,4r)-4-morpholinocyclohexyl)amino)quinazoline-6-carboxamide] |
| ≤ 500 | ≤ 500 | ≤ 5000 | Cn1cc(Nc2nc(N[C@H]3CC[C@H](N4CCOCC4)CC3)c3cc(Br)ccc3n2)cn1 [Compound I-10, 6-bromo-N2-(1-methyl-1H-pyrazol-4-yl)-N4-((1r,4r)-4-morpholinocyclohexyl)quinazoline-2,4-diamine] |
| ≤ 500 | ≤ 500 | ≤ 5000 | Cn1cc(Nc2nc(N[C@H]3CC[C@H](N4CCOCC4)CC3)c3cc(C#N)ccc3n2)cn1 [Compound I-11, 2-((1-methyl-1H-pyrazol-4-yl)amino)-4-(((1r,4r)-4-morpholino-cyclohexyl)amino)quinazoline-6-carbonitrile] |
| ≤ 500 | ≤ 500 | ≤ 5000 | N#Cc1ccc2ncnc(N[C@H]3CC[C@H](N4CCC5(CC4)COC5)CC3)c2c1 [Compound I-14, 4-(((1r,4r)-4-(2-oxa-7-azaspiro[3.5]nonan-7-yl)cyclohexyl)amino)-quinazoline-6-carbonitrile] |
| ≤ 500 | ≤ 500 | ≤ 5000 | CCc1ccc2ncnc(N[C@H]3CC[C@H](N4CCOCC4)CC3)c2c1 [Compound I-15, 6-ethyl-N-((1r,4r)-4-morpholinocyclohexyl)quinazolin-4-amine] |
| ≤ 500 | ≤ 500 | ≤ 5000 | N#Cc1ccc2nc(Nc3cnn(C4CCOCC4)c3)nc(N[C@H]3CC[C@H](N4CCOCC4)CC3)c2c1 [Compound I-16, 4-(((1r,4r)-4-morpholinocyclohexyl)amino)-2-((1-(tetrahydro-2H-pyran-4-yl)-1H-pyrazol-4-yl)amino)quinazoline-6-carbonitrile] |
| – | ≤ 500 | ≤ 5000 | C=Cc1ccc2ncnc(N[C@H]3CC[C@H](N4CCOCC4)CC3)c2c1 [Compound I-20, N-((1r,4r)-4-morpholinocyclohexyl)-6-vinylquinazolin-4-amine] |
| ≤ 500 | 500 to 5000 | ≤ 5000 | N#Cc1ccc2nc(Nc3cnn(CCO)c3)nc(N[C@H]3CC[C@H](N4CCOCC4)CC3)c2c1 [Compound I-22, 2-((1-(2-hydroxyethyl)-1H-pyrazol-4-yl)amino)-4-(((1r,4r)-4-morpholinocyclohexyl)amino)quinazoline-6-carbonitrile] |
| ≤ 500 | 500 to 5000 | ≤ 5000 | N#Cc1ccc2nc(Nc3cnn(CCOCCO)c3)nc(N[C@H]3CC[C@H](N4CCOCC4)CC3)c2c1 [Compound I-24, 2-((1-(2-(2-hydroxyethoxy)ethyl)-1H-pyrazol-4-yl)amino)-4-(((1r,4r)-4-morpholinocyclohexyl)amino)quinazoline-6-carbonitrile] |
| 500 to 5000 | 500 to 5000 | ≤ 5000 | CS(=O)(=O)CCCn1cc(Nc2nc(N[C@H]3CC[C@H](N4CCOCC4)CC3)c3cc(C#N)ccc3n2)cn1 [Compound I-25, 2-((1-(3-(methylsulfonyl)propyl)-1H-pyrazol-4-yl)amino)-4-(((1r,4r)-4-morpholinocyclohexyl)amino)quinazoline-6-carbonitrile] |
| ≤ 500 | ≤ 500 | ≤ 5000 | Clc1ccc2ncnc(N[C@H]3CC[C@H](N4CCOCC4)CC3)c2c1 [Compound I-26, 6-chloro-N-((1r,4r)-4-morpholinocyclohexyl)quinazolin-4-amine] |
| ≤ 500 | ≤ 500 | ≤ 5000 | Clc1ccc2ncnc(N[C@H]3CC[C@H](N4CCC5(CC4)COC5)CC3)c2c1 [Compound I-27, N-((1r,4r)-4-(2-oxa-7-azaspiro[3.5]nonan-7-yl)cyclohexyl)-6-chloroquinazolin-4-amine] |
| ≤ 500 | ≤ 500 | ≤ 5000 | N#Cc1ccc2nc(Nc3cnn(C4CCC(O)CC4)c3)nc(N[C@H]3CC[C@H](N4CCOCC4)CC3)c2c1 (some centres unmarked) [Compound I-28, 2-((1-(4-hydroxycyclohexyl)-1H-pyrazol-4-yl)amino)-4-(((1r,4r)-4-morpholinocyclohexyl)amino)quinazoline-6-carbonitrile] |
| ≤ 500 | 500 to 5000 | ≤ 5000 | c1nc(N[C@H]2CC[C@H](N3CCOCC3)CC2)c2c3c(ccc2n1)CCC3 [Compound I-29, N-((1r,4r)-4-morpholinocyclohexyl)-8,9-dihydro-7H-cyclo-penta[f]quinazolin-1-amine] |
| ≤ 500 | ≤ 500 | ≤ 5000 | OCC#Cc1ccc2ncnc(N[C@H]3CC[C@H](N4CCOCC4)CC3)c2c1 [Compound I-30, 3-(4-(((1r,4r)-4-morpholinocyclohexyl)amino)quinazolin-6-yl)prop-2-yn-1-ol] |
| ≤ 500 | 500 to 5000 | ≤ 5000 | c1nc(O[C@H]2CC[C@H](N3CCOCC3)CC2)c2c3c(ccc2n1)CCC3 [Compound I-31, 4-((1r,4r)-4-((8,9-dihydro-7H-cyclopenta[f]quinazolin-1-yl)oxy)cyclohexyl)morpholine] |
| ≤ 500 | 500 to 5000 | ≤ 5000 | N#CCc1ccc2ncnc(N[C@H]3CC[C@H](N4CCOCC4)CC3)c2c1 [Compound I-34, 2-(4-(((1r,4r)-4-morpholinocyclohexyl)amino)-quinazolin-6-yl)acetonitrile] |
| ≤ 500 | 500 to 5000 | ≤ 5000 | C#Cc1ccc2ncnc(N[C@H]3CC[C@H](N4CCOCC4)CC3)c2c1 [Compound I-35, 6-ethynyl-N-((1r,4r)-4-morpholinocyclohexyl)quinazolin-4-amine] |
